Assay results taken from the supplement of paper PMC10307832.

Experiments:
Experiment in all cases: relative viability (nuclei count vs DMSO), 5 days (fraction); higher = more cells survive
Imatinib + Bortezomib = compound: Cc1ccc(NC(=O)c2ccc(CN3CCN(C)CC3)cc2)cc1Nc1nccc(-c2cccnc2)n1 [Imatinib] + CC(C)C[C@H](NC(=O)[C@H](Cc1ccccc1)NC(=O)c1cnccn1)B(O)O [Bortezomib] (partner 0.002 µM)
Summary of the method: (§1)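 Lung cancer cell lines were seeded in 1536-well plates and dosed by pin tool the next day, with either a single drug or a fixed anchor-drug dose combined with five library-drug doses (not always all listed) spaced in √10 steps. Five days later, one step fixed the cells and stained their nuclei (final 0.05% Triton X-100, 1% formaldehyde, 1 ug/ml Hoechst), and nuclei were counted on 4× images. Relative viability is the nuclei count in treated wells divided by the count in vehicle wells, and each value is the median of duplicate plates.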

Imatinib + Luminespib = compound: Cc1ccc(NC(=O)c2ccc(CN3CCN(C)CC3)cc2)cc1Nc1nccc(-c2cccnc2)n1 [Imatinib] + CCNC(=O)c1noc(-c2cc(C(C)C)c(O)cc2O)c1-c1ccc(CN2CCOCC2)cc1 [Luminespib] (partner 0.01 µM)
Summary of the method: as §1

Imatinib + Linsitinib = compound: Cc1ccc(NC(=O)c2ccc(CN3CCN(C)CC3)cc2)cc1Nc1nccc(-c2cccnc2)n1 [Imatinib] + C[C@]1(O)C[C@@H](c2nc(-c3ccc4ccc(-c5ccccc5)nc4c3)c3c(N)nccn32)C1 [Linsitinib] (partner 1 µM)
Summary of the method: as §1

Imatinib + AZD7762 = compound: Cc1ccc(NC(=O)c2ccc(CN3CCN(C)CC3)cc2)cc1Nc1nccc(-c2cccnc2)n1 [Imatinib] + NC(=O)Nc1cc(-c2cccc(F)c2)sc1C(=O)N[C@H]1CCCNC1 [AZD7762] (partner 0.2 µM)
Summary of the method: as §1

Cell Line	relative viability (Imatinib + Bortezomib; first compound 0.02 µM)	relative viability (Imatinib + Bortezomib; first compound 0.06325 µM)	relative viability (Imatinib + Bortezomib; first compound 0.2 µM)	relative viability (Imatinib + Bortezomib; first compound 0.6325 µM)	relative viability (Imatinib + Bortezomib; first compound 2 µM)	relative viability (Imatinib + Luminespib; first compound 0.02 µM)	relative viability (Imatinib + Luminespib; first compound 0.06325 µM)	relative viability (Imatinib + Luminespib; first compound 0.2 µM)	relative viability (Imatinib + Luminespib; first compound 0.6325 µM)	relative viability (Imatinib + Luminespib; first compound 2 µM)	relative viability (Imatinib + Linsitinib; first compound 0.02 µM)	relative viability (Imatinib + Linsitinib; first compound 0.06325 µM)	relative viability (Imatinib + Linsitinib; first compound 0.2 µM)	relative viability (Imatinib + Linsitinib; first compound 0.6325 µM)	relative viability (Imatinib + Linsitinib; first compound 2 µM)	relative viability (Imatinib + AZD7762; first compound 0.02 µM)	relative viability (Imatinib + AZD7762; first compound 0.06325 µM)	relative viability (Imatinib + AZD7762; first compound 0.2 µM)	relative viability (Imatinib + AZD7762; first compound 0.6325 µM)	relative viability (Imatinib + AZD7762; first compound 2 µM)
NCI-H1975	0.484	0.437	0.338	0.304	0.356	0.254	0.191	0.201	0.178	0.274	0.977	0.965	1.07	0.843	0.958	0.754	0.701	0.646	0.652	0.646
NCI-H1915	1.04					1.1		0.694	0.637	0.766	1.09		1.17	1.08	1.08	0.705		0.781	0.659	0.665
NCI-H441	1.12	0.616	0.543	0.439	0.435	0.37	0.326	0.448	0.304	0.309	0.644	0.485	0.573	0.47	0.546	1.34	1.34	1.17	1.1	1.08
EPLC-272H	0.98		1.15	1.06	1.06	0.312		0.456	0.306	0.14	1.28		1.24	1.23	1.02	0.218			0.156	0.15
EMC-BAC-2	1.11	1.11	1.21	1.16	1.07	1.25	1.5	1.36	1.14		0.845	0.961	0.889	0.767	0.868	1.21	1.3	1.19	1.21	1.11
NCI-H460	1.5	1.33	1.7	0.92		0.0343	0.0424	0.0365	0.0344	0.0321	1.11		0.964	0.801	1.02	0.658	0.783	0.606	0.489	0.509
ABC-1	0.311		0.282	0.235	0.348	0.911		0.445	0.326		0.727		0.778	0.849	0.779	0.821		0.786		0.726
201T	1.08		1.13		1.06	1.09		1.11	0.96	1.03	1.03		1.03	1.03	0.957	0.72	0.399	0.589	0.541	0.517
NCI-H1755	1.13	1.09	1.03		0.928	0.402	0.371	0.273	0.454	0.418	1.05	1.08		0.979	0.994	0.451	0.458	0.413	0.421	0.434
EKVX	1.03	1.14	1.13	1.15	1.09		0.712	0.817	0.926	0.847	1.09		0.968	1.02	1.12			0.617	0.723	
BEN	0.975	0.641	0.796	0.79	0.581	0.402		0.29	0.355	0.156	0.908	0.785	0.921	0.837	0.969	0.702	0.544	0.681	0.782	0.582
HARA	0.952	1.25	1.5	1.09	1.1	0.912		0.684	0.489	0.997	1.16	0.906	1.05	0.994	0.969	0.361	0.267	0.292	0.232	0.304
HCC-15	1.03	0.93	1.07	1.13	1.02	0.311		0.358	0.33	0.297	0.82	0.917	0.926		0.867	0.449		1.32	1.42	1.3
NCI-H23	1.29	0.95	1.13	1.03		0.248	0.225	0.221	0.185	0.189	0.535	0.641	0.588	0.546	0.598	0.27	0.285	0.23	0.203	0.21
NCI-H838	1.04	0.823	0.947	1	0.886	0.33	0.3	0.363	0.275	0.266	1.12	1.37	1.3	1.03	1.02	1.04	1.03	0.961	0.954	1.02
NCI-H1666	0.76	0.796	0.837	0.859	0.652	1.06	1.21		1.18	1.03	0.718	0.849		0.986	0.857	0.902	0.873	0.792	0.849	0.809
NCI-H2087	0.868	0.963	0.689	0.727	0.604	0.205		0.155	0.159	0.25	1.09	1	1.07	0.991	0.85	1.33		1.58	1.35	

Cell Line	relative viability (Imatinib + Bortezomib; first compound 0.02 µM)	relative viability (Imatinib + Bortezomib; first compound 0.06325 µM)	relative viability (Imatinib + Bortezomib; first compound 0.2 µM)	relative viability (Imatinib + Bortezomib; first compound 0.6325 µM)	relative viability (Imatinib + Bortezomib; first compound 2 µM)	relative viability (Imatinib + Luminespib; first compound 0.02 µM)	relative viability (Imatinib + Luminespib; first compound 0.06325 µM)	relative viability (Imatinib + Luminespib; first compound 0.2 µM)	relative viability (Imatinib + Luminespib; first compound 0.6325 µM)	relative viability (Imatinib + Luminespib; first compound 2 µM)	relative viability (Imatinib + Linsitinib; first compound 0.02 µM)	relative viability (Imatinib + Linsitinib; first compound 0.06325 µM)	relative viability (Imatinib + Linsitinib; first compound 0.2 µM)	relative viability (Imatinib + Linsitinib; first compound 0.6325 µM)	relative viability (Imatinib + Linsitinib; first compound 2 µM)	relative viability (Imatinib + AZD7762; first compound 0.02 µM)	relative viability (Imatinib + AZD7762; first compound 0.06325 µM)	relative viability (Imatinib + AZD7762; first compound 0.2 µM)	relative viability (Imatinib + AZD7762; first compound 0.6325 µM)	relative viability (Imatinib + AZD7762; first compound 2 µM)
NCI-H2405		0.857	0.92	1.01	0.983	0.682		0.575	0.58	0.76	1.05		0.869	0.762	0.956	0.813	0.791	0.706	0.635	0.651
PC-14	0.923	0.911	0.96	0.949	0.844	0.16		0.232		0.165		0.97	1.06	0.984	1.01	0.465	0.477	0.338	0.453	0.334
LCLC-97TM1	0.552			0.741	0.524	0.89		0.864	0.889	0.813			0.204	0.179	0.184	0.28		0.238	0.258	0.177
NCI-H596	1.2	1.02		0.944		0.984	1.29	1.01	0.798	0.91	1.09	0.958	1.1		0.969	1.21	1.03		0.948	1.13
HCC-827		1	1.04	1.02			0.322	0.807	0.545	0.729	1.02	0.96		0.98	0.897	0.189	0.215	0.195	0.17	0.157
NCI-H647	1.11	1.11	1.73	1.02	0.872	0.198	0.121	0.134	0.119	0.146	1.43	1.44	1.25	1.13	1.18	0.708	0.519	0.383	0.383	0.381
LXF-289	1.06		1.13	0.974	0.955	0.805	0.5	0.615	0.566	0.672	1.03	1.05	1.08	0.892	0.935	1.13		1.25	1.04	1.09
NCI-H650	0.893	0.823	0.805	1.03	0.616	0.887	0.67	0.641	0.796	0.769	1.27	0.86	0.95	1.05	0.861	1.11	0.882		1.03	0.979
H3255	0.796		0.729	0.699	0.7	0.922	0.415		0.865	0.777	1.06	0.921	0.877	0.965	0.998	1.02	0.784		0.95	0.842
NCI-H2126	1.12		1.19	1.05	1.12	0.955		0.979		0.959	0.724		0.728	0.742	0.758		0.668	1.03	0.894	0.981
NCI-H2085	1.05	0.902	1.08	1.13	1.04	0.548	0.628	0.421	0.463	0.541	0.93	0.823	1.11	0.95	0.825	1.03	0.87		1.14	0.879
A-427	1.11		1.11	1.05	0.853	1.06		0.868	0.903	0.9	1.11		1.11	1.17	1.08	0.812	0.84	0.634	0.654	0.572
LC-2-ad	1.16	0.658	1.18	0.985	0.929	1.23	0.744	0.935	1	1.07	0.838	0.875	0.896	0.825	0.84	0.965		0.76	0.772	0.813
PC-3 [JPC-3]	0.887		0.832	0.864	0.711	0.764		0.705	0.704	0.734			1.05	1.04		0.979			0.921	0.635
CAL-12T	1.07	1.1	0.927	0.968	1.02	0.365		0.363	0.397	0.198	0.908	0.877	0.996	0.982	0.788	0.692	0.724	0.637	0.699	
NCI-H1792	1.21	0.951	0.675	0.861	0.935	0.519	0.321	0.432	0.447	0.365	0.623	0.332	0.502	0.317	0.566	0.727	0.7	0.513		0.34
